Assay results as given in article PMC8551148, “Identification and characterization of deschloro-chlorothricin obtained from a large natural product library targeting aurora A kinase in multiple myeloma” (Investigational New Drugs, 2020).

Biological target: T1, Aurora A kinase (AURKA) (Homo sapiens, UniProt O14965)
T1 sequence (O14965 1-403): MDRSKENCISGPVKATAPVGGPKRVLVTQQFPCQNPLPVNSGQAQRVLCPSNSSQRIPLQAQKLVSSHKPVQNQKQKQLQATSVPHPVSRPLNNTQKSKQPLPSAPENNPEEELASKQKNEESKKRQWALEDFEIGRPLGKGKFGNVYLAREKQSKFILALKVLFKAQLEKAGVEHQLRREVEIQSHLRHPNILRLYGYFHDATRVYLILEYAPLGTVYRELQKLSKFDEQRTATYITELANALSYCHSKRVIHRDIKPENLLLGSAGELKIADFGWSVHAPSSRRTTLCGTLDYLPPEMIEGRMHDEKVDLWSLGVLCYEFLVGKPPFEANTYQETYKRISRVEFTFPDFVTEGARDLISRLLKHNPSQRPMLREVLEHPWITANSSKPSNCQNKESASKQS
Assay: microscale thermophoresis with RED-NHS labelled purified AURKA ([…])
Format: binding

## COc1cccc(C)c1C(=O)O[C@@H]1C[C@H](O[C@H]2[C@H](O)C[C@H](O[C@@H]3CCC[C@H]4[C@H]3C=C[C@@H]3CCCC/C=C\[C@H]5C=C(C(=O)O)[C@@H](C)C[C@@]56OC(=O)C(=C6O)OC(=O)[C@@]34C)O[C@@H]2C)O[C@H](C)[C@H]1O [Compound 5, deschloro-chlorothricin]
  Kd: 8.17 µM
